Results on one compound are retold here after patent US8697939B2, “Mouse model for depression, schizophrenia and alzheimer's disease and the use thereof” (National Yang Ming University, priority 2009, dated 2014).

For assay [1] the following is noted: phase II clinical trials; cited from earlier work.
For a further assay, the target named is T1, glycine transporter-1 (Homo sapiens, UniProt P48067).
T1 construct: host or cells: human patients (endogenous transporter)
T1 sequence (P48067 1-706): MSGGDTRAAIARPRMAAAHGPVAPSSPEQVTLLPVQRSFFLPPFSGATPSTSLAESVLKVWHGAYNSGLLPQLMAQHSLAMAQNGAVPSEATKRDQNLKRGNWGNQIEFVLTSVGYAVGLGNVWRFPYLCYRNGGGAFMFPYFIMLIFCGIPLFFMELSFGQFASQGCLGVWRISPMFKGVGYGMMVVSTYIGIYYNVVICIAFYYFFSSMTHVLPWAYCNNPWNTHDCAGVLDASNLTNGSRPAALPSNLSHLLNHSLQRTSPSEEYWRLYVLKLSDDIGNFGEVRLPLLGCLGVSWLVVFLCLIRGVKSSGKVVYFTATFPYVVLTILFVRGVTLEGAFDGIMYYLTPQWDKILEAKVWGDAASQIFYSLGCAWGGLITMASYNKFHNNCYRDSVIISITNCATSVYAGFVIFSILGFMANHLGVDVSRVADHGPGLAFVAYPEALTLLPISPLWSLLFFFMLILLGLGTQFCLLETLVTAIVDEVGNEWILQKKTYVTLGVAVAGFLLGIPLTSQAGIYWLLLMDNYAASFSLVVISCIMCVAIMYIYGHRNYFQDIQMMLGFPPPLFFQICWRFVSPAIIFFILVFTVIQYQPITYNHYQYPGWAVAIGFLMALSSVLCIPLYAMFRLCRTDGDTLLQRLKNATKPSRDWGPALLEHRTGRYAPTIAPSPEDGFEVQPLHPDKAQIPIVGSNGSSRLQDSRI
To be noted: clinical studies, supplement of sarcosine; cited from earlier work.

A further assay has as its system GNMT knockout mice. Kind of assay: Prepulse inhibition (PPI) of acoustic startle reflex in drug-treated GNMT knockout mice. In kind it is in vivo, mouse. On the procedure: The apparatus consisted of two startle chambers (Med Associates, Georgia, Vt.). One mouse selected from the WT control group and the other selected from GNMT deficient group were tested simultaneously. Each mouse was put into the PPI chamber for a 5-min acclimatization period with a […] background noise. Following this period, 10 startle pulses (120 dB, 40 ms duration) were presented with an average inter-trial interval of 15 s. Then, no stimulus (background noise, 68 dB), prepulses alone (72, 76 and 84 dB, 20 ms duration), startle pulses alone, and prepulses followed 80 ms later by startle pulses were presented six times randomly distributed over the next 20 min. […]
In view of the observed deficits in prepulse inhibition (PPI) of the acoustic startle reflex in GNMT knockout mice, we administered clozapine (a […] anti-schizophrenic drug, 1 mg/kg) to the GNMT knockout mice, and evaluated the therapeutic effects on schizophrenia. […]
Another hypothesis of schizophrenia pathology is that neuropsychiatric disorder may be associated with the dysfunction of N-methyl-D-aspartate (NMDA) receptor, a glutamate receptor. […] Therefore, in a further experiment, sarcosine (100 mg/kg) is administered to the GNMT knockout mice, and evaluated its therapeutic effects on schizophrenia.

Entries after “also recorded” stand apart in the source; their conditions may differ.

Turning to `CNCC(=O)O` [sarcosine], the symptoms of depression result in assay [1] is listed as “effective to ameliorate symptoms of depression”. For the same compound, the symptoms of schizophrenia entry on glycine transporter-1 is “can improve the symptoms of schizophrenia”. The “level of startle amplitude” value in the assay on GNMT knockout mice (sarcosine 100 mg/kg (FIG. 10)) is listed as “unaffected”. Besides, in the assay on GNMT knockout mice (sarcosine 100 mg/kg, compared with solvent control (FIG. 11)), the “percent PPI of ASR” value was “significantly induced PPI; also recorded: significantly ameliorated deficits in prepulse inhibition”.
